Assay results reported in US9650339B2, “Inhibitors of histone demethylases” (Gilead Sciences, Inc., priority 2013, dated 2017).

Key:
KDM4A (JMJD2A) = target: T1, KDM4A (JMJD2A) (Homo sapiens, UniProt O75164); experiment: Histone lysine demethylase AlphaLISA assay, KDM4A; assay type: biochemical; conditions: read-out: KDM4A HDME Inhibition IC50
T1 construct: 1-350; purchased BPS Bioscience, US; host or cells: E. coli
T1 sequence (O75164 1-350): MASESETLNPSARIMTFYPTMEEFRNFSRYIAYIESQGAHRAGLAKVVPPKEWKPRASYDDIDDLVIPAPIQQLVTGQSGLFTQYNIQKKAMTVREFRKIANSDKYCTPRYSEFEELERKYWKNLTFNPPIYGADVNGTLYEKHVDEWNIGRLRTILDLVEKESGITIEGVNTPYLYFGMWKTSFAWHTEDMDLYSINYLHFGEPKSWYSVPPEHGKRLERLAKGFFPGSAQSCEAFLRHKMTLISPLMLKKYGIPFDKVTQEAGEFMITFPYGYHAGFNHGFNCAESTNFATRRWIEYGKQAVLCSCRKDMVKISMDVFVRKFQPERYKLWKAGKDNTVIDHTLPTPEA
Protocol: Assays are performed analogously to the protocol described by PerkinElmer (Roy et al. PerkinElmer Technical Note: AlphaLISA #12, April 2011)
Enzymes are dissolved in enzyme buffer and incubated for 10 min before being added to 3% DMSO solutions of compounds in enzyme buffer. Incubated for another 10 minutes, before substrate solution is added and the reaction mixture is incubated at room temperature. 10 μL acceptor beads, suspended in Epigenetic Buffer (Perkin Elmer AL008) from stock, are added and the suspension is incubated in the dark at room temperature, before a suspension of streptavidin donor beads (Perkin Elmer 6760002) in Epigenetic Buffer is added. After incubation at room temperature in the dark the plates are read.
BK9M3: Biotin-ARTKQTAR(KMe3)STGGKAPRKQ-NH2 (Caslo, Denmark) […]
Substrate Solution: Substrate, 25 μM L-Asc, and 10 μM α-KG in Buffer A.

KDM4C = target: T2, KDM4C (Homo sapiens, UniProt Q9H3R0); experiment: Histone lysine demethylase immunofluorescence assay, U2OS cells transfected with KDM4C; assay type: cell-based; conditions: U2OS cells transfected with pCMVHA KDM4C; mark detected H3K9me3; 20 hours
T2 construct: Full length; host or cells: U2OS
T2 sequence (Q9H3R0 1-1056): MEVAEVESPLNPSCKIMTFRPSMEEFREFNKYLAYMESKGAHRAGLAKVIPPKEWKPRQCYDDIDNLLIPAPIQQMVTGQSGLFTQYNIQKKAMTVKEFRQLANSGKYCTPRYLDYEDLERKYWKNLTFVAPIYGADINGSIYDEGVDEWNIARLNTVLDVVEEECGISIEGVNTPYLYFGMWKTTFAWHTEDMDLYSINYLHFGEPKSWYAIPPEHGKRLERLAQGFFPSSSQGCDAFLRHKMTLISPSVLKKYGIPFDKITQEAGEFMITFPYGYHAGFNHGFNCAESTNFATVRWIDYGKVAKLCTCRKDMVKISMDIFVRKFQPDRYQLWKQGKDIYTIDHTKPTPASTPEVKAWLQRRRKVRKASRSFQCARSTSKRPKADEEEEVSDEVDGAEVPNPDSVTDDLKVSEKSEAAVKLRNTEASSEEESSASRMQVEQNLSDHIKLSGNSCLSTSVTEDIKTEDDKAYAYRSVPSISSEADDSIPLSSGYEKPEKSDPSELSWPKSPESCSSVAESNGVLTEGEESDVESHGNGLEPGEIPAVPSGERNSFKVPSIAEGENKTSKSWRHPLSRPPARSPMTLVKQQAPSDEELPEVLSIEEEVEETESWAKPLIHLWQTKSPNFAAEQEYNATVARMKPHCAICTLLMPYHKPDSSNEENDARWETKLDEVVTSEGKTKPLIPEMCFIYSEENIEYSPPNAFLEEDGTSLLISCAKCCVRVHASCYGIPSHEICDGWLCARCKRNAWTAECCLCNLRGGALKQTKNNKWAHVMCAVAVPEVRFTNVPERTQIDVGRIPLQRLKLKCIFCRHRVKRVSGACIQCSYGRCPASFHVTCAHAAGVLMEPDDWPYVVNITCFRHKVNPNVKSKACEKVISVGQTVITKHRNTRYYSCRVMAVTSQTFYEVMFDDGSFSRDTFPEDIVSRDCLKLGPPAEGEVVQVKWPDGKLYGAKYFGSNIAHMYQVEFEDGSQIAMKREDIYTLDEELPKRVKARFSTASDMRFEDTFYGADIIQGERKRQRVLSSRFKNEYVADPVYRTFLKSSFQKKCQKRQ
Outline: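 U2OS cells were transiently transfected with HA-tagged demethylase and reseeded after 6 h into compound-containing DMEM/10% FBS for 20 h. Cells were fixed in formaldehyde and immunostained for HA and the relevant histone methyl mark, then imaged. IC50 is based on mean mark staining in HA+ transfected cells.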

Compound	IC50 (KDM4A (JMJD2A))	IC50 (KDM4C)
CN(CCCNCc1cc(/C=N/C2CC2)ccn1)Cc1ccccc1 [Compound 41, N-({2-[({3-[benzyl(methyl)amino]-propyl}amino)methyl]-pyridin-4-yl}methylidene)-cyclopropanamine]	< 250 nM	250 to 2500 nM
C(=N/C1CC1)/c1ccnc(CNCCCN2CCCC2)c1 [Compound 42, N-{[2-({[3-(pyrrolidin-1-yl)propyl]amino}-methyl)pyridin-4-yl]methylidene}-cyclopropanamine]	> 2500 nM	250 to 2500 nM
CN(C)C/C=C/CNCc1cc(/C=N/C2CC2)ccn1 [Compound 43, N-{[2-({[(2E)-4-(dimethylamino)but-2-en-1-yl]amino}-methyl)pyridin-4-yl]methylidene}-cyclopropanamine]	250 to 2500 nM	250 to 2500 nM
CN(C)CCCCNCc1cc(/C=N\C2CC2)ccn1 [Compound 45, N-{[2-({[4-(dimethylamino)butyl]-amino}methyl)-pyridin-4-yl]methylidene}-cyclopropanamine]	> 2500 nM	250 to 2500 nM
CN(C)CC1CCC(CNCc2cc(/C=N/C3CC3)ccn2)CC1 (stereo not drawn) [Compound 46, N-[(2-{[({4-[(dimethylamino)-methyl]cyclohexyl}-methyl)amino]-methyl}pyridin-4-yl)methylidene]-cyclopropanamine]	250 to 2500 nM	250 to 2500 nM
CN(C)CCCCCNCc1cc(/C=N/C2CC2)ccn1 [Compound 47, N-{[2-({[5-(dimethylamino)-pentyl]amino}-methyl)pyridin-4-yl]methylidene}-cyclopropanamine]	> 2500 nM	250 to 2500 nM
CCN(CC)CCCCNC(=O)CNCc1cc(/C=N/C2CC2)ccn1 [Compound 48, 2-[({4-[N-cyclopropyl-carboximidoyl]pyridin-2-yl}methyl)amino]-N-[4-(diethylamino)-butyl]acetamide]	< 250 nM	> 2500 nM
O=C(CNCc1cc(/C=N/C2CC2)ccn1)N1CCC[C@@H]1CN1CCCC1 [Compound 49, 2-[({4-[N-cyclopropyl-carboximidoyl]pyridin-2-yl}methyl)amino]-1-[(2R)-2-(pyrrolidin-1-ylmethyl)pyrrolidin-1-yl]ethan-1-one]	< 250 nM	250 to 2500 nM
CCN(CCC#N)C(=O)CNCc1cc(/C=N/C2CC2)ccn1 [Compound 50, N-(2-cyanoethyl)-2-[({4-[N-cyclopropyl-carboximidoyl]-pyridin-2-yl}methyl)amino]-N-ethylacetamide]	< 250 nM	> 2500 nM
CCN1CCCC1CNC(=O)CNCc1cc(/C=N/C2CC2)ccn1 (stereo not drawn) [Compound 51, 2-[({4-[N-cyclopropyl-carboximidoyl]-pyridin-2-yl}methyl)-amino]-N-[(1-ethylpyrrolidin-2-yl)methyl]acetamide]	250 to 2500 nM	> 2500 nM
CN(CCCn1cccn1)C(=O)CNCc1cc(/C=N/C2CC2)ccn1 [Compound 52, 2-[({4-[N-cyclopropyl-carboximidoyl]-pyridin-2-yl}methyl)amino]-N-methyl-N-[3-(1H-pyrazol-1-yl)propyl]acetamide]	250 to 2500 nM	> 2500 nM
O=C(CNCc1cc(/C=N/C2CC2)ccn1)NC1CCN(Cc2ccccc2)C1 (stereo not drawn) [Compound 53, N-(1-benzylpyrrolidin-3-yl)-2-[({4-[N-cyclopropyl-carboximidoyl]pyridin-2-yl}methyl)amino]-acetamide]	< 250 nM	> 2500 nM
CN1CCN(C(=O)CNCc2cc(/C=N/C3CC3)ccn2)CC1 [Compound 54, 2-[({4-[N-cyclopropyl-carboximidoyl]-pyridin-2-yl}methyl)amino]-1-(4-methylpiperazin-1-yl)ethan-1-one]	250 to 2500 nM	> 2500 nM
O=C(CNCc1cc(/C=N/C2CC2)ccn1)N1CCC(Cc2ccccc2)CC1 [Compound 55, 1-(4-benzylpiperidin-1-yl)-2-[({4-[N-cyclopropyl-carboximidoyl]-pyridin-2-yl}methyl)amino]-ethan-1-one]	250 to 2500 nM	> 2500 nM
C#CCN(C)C(=O)CNCc1cc(/C=N/C2CC2)ccn1 [Compound 56, 2-[({4-[N-cyclopropyl-carboximidoyl]-pyridin-2-yl}methyl)amino]-N-methyl-N-(prop-2-yn-1-yl)acetamide]	250 to 2500 nM	> 2500 nM
CCN(CC)CCCCNCc1cc(/C=N/CCO)ccn1 [Compound 61, 2-[{[2-({[4-(diethylamino)-butyl]amino}-methyl)pyridin-4-yl]methylidene}-amino]ethan-1-ol]	> 2500 nM	250 to 2500 nM
CCN(CC)CCCCNCc1cc(/C=N/CC(F)(F)C(F)(F)F)ccn1 [Compound 62, {[2-({[4-(diethylamino)-butyl]amino}methyl)pyridin-4-yl]methylidene} (2,2,3,3,3-pentafluoropropyl)-amine]	> 2500 nM	250 to 2500 nM
CCN(CCN(C)C)C(=O)CNCc1cc(/C=N/CCC2CCCCC2)ccn1 [Compound 63, 2-[({4-[[(2-cydohexylethyl)-imino]methyl]pyridin-2-yl}methyl)amino]-N-[2-(dimethylamino)-ethyl]-N-ethylacetamide]	> 2500 nM	250 to 2500 nM
CON=Cc1ccnc(CNCCCN(C)C)c1 [Compound 64, [3-(dimethylamino)-propyl]({4-[(methoxyimino)-methyl]pyridin-2-yl}methyl)amine]	250 to 2500 nM	> 2500 nM
CCN(CC)CCCCNCc1cc(C2NCCN2C)ccn1 (stereo not drawn) [Compound 65, [4-(diethylamino)-butyl]({[4-(1-methylimidazolidin-2-yl)pyridin-2-yl]methyl})amine]	> 2500 nM	> 2500 nM
CCN(CCN(C)C)C(=O)CNCc1cc(/C=N/CCO)ccn1 [Compound 66]	< 250 nM	250 to 2500 nM
CCN(CC)CCCCNCc1cc(/C=N\CCC2CCCCC2)ccn1 [Compound 67, (2-cyclohexylethyl)-({[2-({[4-(diethylamino)-butyl]amino}methyl)pyridin-4-yl]methylidene})-amine]	> 2500 nM	250 to 2500 nM
CN(C)CC1CCC(CNCc2cc(C=O)ccn2)CC1 (stereo not drawn) [Compound 97, 2-{[({4-[(dimethylamino)-methyl]cyclohexyl}-methyl)amino]-methyl}pyridine-4-carbaldehyde]	> 2500 nM	250 to 2500 nM
CN(C)C/C=C/CNCc1cc(C=O)ccn1 [Compound 98, 2-({[(2E)-4-(dimethylamino)but-2-en-1-yl]amino}-methyl)pyridine-4-carbaldehyde]	> 2500 nM	250 to 2500 nM
CN(C)C/C=C\CNCc1cc(C=O)ccn1 [Compound 99, 2-({[(2Z)-4-(dimethylamino)-but-2-en-1-yl]amino}methyl)-pyridine-4-carbaldehyde]	> 2500 nM	> 2500 nM
CCN(CCN(C)C)C(=O)CNCc1cc(C=O)ccn1 [Compound 101]	< 250 nM	250 to 2500 nM
O=Cc1ccnc(CNCC(=O)N2CCC[C@@H]2CN2CCCC2)c1 [Compound 102, 2-[({2-oxo-2-[(2R)-2-(pyrrolidin-1-ylmethyl)pyrrolidin-1-yl]ethyl}amino)-methyl]pyridine-4-carbaldehyde]	> 2500 nM	250 to 2500 nM
